Counter-ions that a name gives are not always drawn.
Legend:
[1] = package insert; cited from earlier work
[2] = system: NIH3T3 cells; details: 10 pg/mL, low serum or serum-free medium; cited from earlier work
[3] = Lidocaine release study, lidocaine-loaded nanoparticles in crosslinked gelatin hydrogel (UV-Vis 280 nm); type: physicochemical
Method: For the lidocaine release study, a coated tubing which comprises a dried 1 cm by 0.5 cm piece of gelatin-lidocaine (100 mg lidocaine in 0.5 ml gelatin, 1% GA) was used. The coated tubing was placed in a 7 ml glass scintillation vial for the release study. The release solution medium (1 ml of PBS) was added to the scintillation vials, and the sample was incubated at 37° C. 1 ml samples were taken daily, and the release solution was replenished. The day 0 sample was taken 5 minutes after adding the release solution to the vials to measure the amount of lidocaine not incorporated into the gels.
The amount of lidocaine released as an effect of different nanoparticle formulations and differing amounts of lidocaine was determined using a UV-Vis spectrophotometer (GENESYS 10S UV-Vis) at 280 nm wavelength and samples were performed in triplicate (n=3). As a control, the same gelatin samples were prepared without the addition of lidocaine to measure any change in absorbance readings from the gel itself.

[4] = Lidocaine release study, gelatin-lidocaine hydrogel (UV-Vis 280 nm); type: physicochemical
Method: The coated tubing was placed in a 7 ml glass scintillation vial for the release study.
The release solution medium (1 ml of PBS) was added to the scintillation vials, and the sample was incubated at 37° C. 1 ml samples were taken daily, and the release solution was replenished. The day 0 sample was taken 5 minutes after adding the release solution to the vials to measure the amount of lidocaine not incorporated into the gels. […] As a control, the same gelatin samples were prepared without the addition of lidocaine to measure any change in absorbance readings from the gel itself.

[5] = In vitro protein release test from SRTG micelle system (ELISA); type: physicochemical; details: for loading efficiency of protein in the hydrogel / loaded protein released by day 1 (burst release): SRTG 5 wt% + micelle NPs; for loading efficiency of protein in the hydrogel: 500 ng of each protein, day 0 sample after 5 min; for loaded protein released by day 1 (burst release): PBS with 0.2% BSA, 37° C.; for sustained release rate: after day 0 / day 1 through 28 days
Method: Proton nuclear magnetic resonance (1H NMR) was completed with a Varian Inova 500 NMR spectrometer. 1H NMR was used to confirm the structure of PEG-PSHU-PEG. The PEG-PSHU-PEG samples to be analyzed were dissolved in 600 μL of DMSO-d6. Protein Release Test. […] Solutions were mixed and left to dissolve overnight at 4° C. […] Then, 1 mL of warm (37° C.) release solution (lx PBS with 0.2% BSA) was added to the vials. After 5 min, 1 mL of release solution was removed from each sample for the day 0 time point, and 1 mL of fresh warm release solution was added. Samples were then taken every 24 h and immediately placed in a −80° C. freezer for further analysis. Enzyme-linked immunosorbent assay (ELISA) was used to quantify the concentration of proteins in the release solution samples following the manufacturer's instructions (Peprotech, Rocky Hill, N.J.). ELISA color development was monitored with a BioTek Synergy 2 Multi-Mode Reader at 405 nm with wavelength correction set at 650 nm. The results of three replicates were averaged. The hydrogels were initially allowed to stabilize for 5 min at which a sample was taken to determine the loading efficiency of the proteins in the hydrogels (day 0).

[6] = cited from earlier work

Question: Which results are given for `CCN(CC)CC(=O)Nc1c(C)cccc1C` [lidocaine hydrochloride]?
Answer: maximum dose at one time [1]: ≤ 300 mg; maximum subcutaneous dose [1]: about 4.5 mg/kg

Question: With “TGF-β1: transforming growth factor-β1, literature example” as the molecule, how does the “effect on growth rate of NIH3T3 cells” value [2] read?
Answer: The value was “stimulated the growth rate of NIH3T3 cells”.

Question: With `CCN(CC)CC(=O)Nc1c(C)cccc1C` [lidocaine] as the molecule, how does the “duration of sustained release of lidocaine” value (from here on “duration … of lidocaine”) ([3]; 20 mg and 10 mg NP groups loaded with 100 mg of lidocaine, in gelatin hydrogel, PBS, 37° C.) read?
Answer: The value was 10 days.

Question: And the “duration … of lidocaine” value ([3]; 50 mg lidocaine groups, NP formulations in gelatin hydrogel)?
Answer: The value was 11 days.

Question: And the “period of continued stable lidocaine elution, post-sterilization” value ([3]; Example 6, chest tube coated with micelle-loaded crosslinked gelatin)?
Answer: Its value is 3 to 7 days.

Question: What about the “period of continued stable lidocaine elution, post-sterilization” value ([4]; Example 7, chest tube coated with lidocaine loaded crosslinked gelatin) of the same molecule?
Answer: Its value is 3 to 7 days.

Question: What about the “duration … of lidocaine” value ([4]; various gelatin and glutaraldehyde concentrations, coated tubing method) of the same molecule?
Answer: The value was 10 days.

Question: For PDGF, which “loading efficiency of protein in the hydrogel” value [5] is on record?
Answer: Its value is 99%.

Question: What about the “loaded protein released by day 1 (burst release)” value [5] of the same molecule?
Answer: Its value is “approximately 3%”.

Question: And the sustained release rate ([5]; SRTG micelle system)?
Answer: Its sustained release rate is 0.39 ng per day.

Question: And the “duration of sustained release from the delivery system” value ([5]; in vitro, SRTG micelle system)?
Answer: The value was 28 days.

B1: IL-10: Recombinant Murine IL-10, anti-inflammatory cytokine; cited Kd is for human IL-10 (protein, UniProt P18893 19-178, looked up)
Interleukin-10: SRGQYSREDNNCTHFPVGQSHMLLELRTAFSQVKTFFQTKDQLDNILLTDSLMQDFKGYLGCQALSEMIQFYLVEVMPQAEKHGPEIKEHLNSLGEKLKTLRMRLRRCHRFLPCENKSKAVEQVKSDFNKLQDQGVYKAMNEFDIFINCIEAYMMIKMKS
Question: Which results are given for B1?
Answer: half-life in vivo [6]: less than 5 h; loading efficiency of protein in the hydrogel [5]: 93%; loaded protein released by day 1 (burst release) [5]: approximately 21%; sustained release rate ([5]; SRTG micelle system): 0.24 ng per day
